Paper PMC2360237, “A phase Ib study of pertuzumab, a recombinant humanised antibody to HER2, and docetaxel in patients with advanced solid tumours” (British Journal of Cancer, 2007)
Where two headings read alike, the source gives them in different places.

Experiments:
[1] = Docetaxel plasma pharmacokinetics (LC-MS/MS, non-compartmental) alone and with pertuzumab in phase Ib patients; assay type: in vivo, human; settings: for AUC(0-inf) / Cmax / half-life: human, plasma, intravenous; for AUC(0-inf): read-out: AUC0-∞ mean (range); for Cmax: read-out: Cmax mean (range); for half-life: read-out: t1/2 mean (range) (converted)
Procedure: (§1) In the first treatment cycle, blood withdrawal for PK analysis was performed 15 and 30 min prior to administration of docetaxel and 15 and 30 min and 1, 2, 4, 8 and 23 h, post administration. Pertuzumab was administered at least 24 h after, on day 2, followed by PK analysis at 15 min and 1.5, 4 and 8 h. In the second cycle, pertuzumab was administered on day 1, immediately followed by the administration of docetaxel and sampling for PK analysis was repeated for both drugs. Plasma samples of docetaxel were analysed using a validated specific liquid chromatography-mass spectrometry (LC-MS/MS) method as described previously ([Agus et al, 2005]). Serum samples were assayed for pertuzumab concentrations using a receptor-binding, enzyme-linked immunosorbent assay. The assay uses immobilised antigen p185^HER2 ECD to capture pertuzumab from serum samples. Bound pertuzumab was detected with mouse anti-human Fc-horseradish peroxidase (Jackson ImmunoResearch Laboratories Inc., West Grove, PA, USA), and tetramethyl benzidine (KPL Inc., Gaithersburg, MD, USA) used as the substrate for colour development to quantify serum pertuzumab against a known standard curve. The assay has a minimum quantifiable concentration of 0.25 μg ml^−1 for pertuzumab in human serum. Pharmacokinetic parameters for docetaxel and pertuzumab were estimated using non-compartmental methods (WinNonLin software version 5.0.1).

[2] = test system: patients with advanced solid tumours
Procedure: This was a phase Ib, open-label, two-center study. […] Pertuzumab was provided by F Hoffmann-La Roche (Basel, Switzerland). Each 10 ml single-use vial contained 175 mg of pertuzumab formulated in 10 mmol l^−1 L-histidine (pH6.0), 240 mmol l^−1 sucrose, and 0.02% polysorbate 20. The first dose of pertuzumab was given by intravenous infusion over 90 min. […] Initially, the planned dose of pertuzumab was fixed dose at 1050 mg for each dose level. […] The dose of docetaxel was sequentially escalated from 60 to 75 to 100 mg m^−2 as outlined in Table 1. […] Initially, three patients were treated in cohort 1, with the first patient being monitored for at least 2 weeks before additional patients were treated. Escalation to a new dose level was permitted when at least two of three patients had been evaluated for 3 weeks. […] At least six patients were to be treated at the 75 and 100 mg m^−2 dose levels before a recommended phase II dose was declared. […]
The incidence and severity of all adverse events, changes in vital signs, laboratory assessments, physical examination findings, and medical conditions during and after treatment with pertuzumab were assessed at least weekly during the first two cycles, and at least weekly three times thereafter, and graded according to NCI-CTC Version 3. […]

[3] = test system: refractory ovarian cancer; HRPC; settings: cited from earlier work
[4] = test system: patients with advanced cancer; settings: cited from earlier work
[5] = Pertuzumab serum pharmacokinetics (receptor-binding ELISA, non-compartmental) in phase Ib patients; settings: for AUC0-last mean (range) / AUC0-∞ mean (range) / Cl mean (range) / Cmax mean (range) / Vss mean (range): serum
Procedure: as §1

[6] = Cohort 1, docetaxel 60 mg m^−2 + pertuzumab 1050 mg, cycle 2, n=6, plasma
[7] = Cohort 1, docetaxel 60 mg m^−2 alone, cycle 1, n=6, plasma
[8] = Cohort 2A, docetaxel 75 mg m^−2 + pertuzumab 420 mg, cycle 2, n=6, plasma
[9] = Cohort 2A, docetaxel 75 mg m^−2 alone, cycle 1, n=6, plasma
[10] = Cohort 3A, docetaxel 100 mg m^−2 + pertuzumab 420 mg, cycle 2, n=4, plasma
[11] = Cohort 3A, docetaxel 100 mg m^−2 alone, cycle 1, n=5, plasma
[12] = 60 mg m^−2, Cohort 1, docetaxel 60 mg m^−2 alone, cycle 1, n=6, plasma
[13] = 75 mg, Cohort 2A, docetaxel 75 mg m^−2 alone, cycle 1, n=6, plasma
[14] = 100 mg, Cohort 3A, docetaxel 100 mg m^−2 alone, cycle 1, n=5, plasma
[15] = pertuzumab 420 mg, cycle 2, n=10, in combination with docetaxel
[16] = pertuzumab 840 mg (loading dose), cycle 1, n=11, in combination with docetaxel
[17] = pertuzumab 1050 mg, cycle 1, n=8, in combination with docetaxel
[18] = pertuzumab 1050 mg, cycle 2, n=7, in combination with docetaxel

Question: Which “Cl mean (range)” value [1, 6] does the source give for `CC(=O)O[C@@]12CO[C@@H]1C[C@H](O)[C@@]1(C)C(=O)[C@H](O)C3=C(C)[C@@H](OC(=O)[C@H](O)[C@@H](NC(=O)OC(C)(C)C)c4ccccc4)C[C@@](O)([C@@H](OC(=O)c4ccccc4)[C@H]21)C3(C)C` [docetaxel, Docetaxel] here?
Answer: Its value is 36 (23–40) × 10^3 ml h m^−2.

Question: And the “Vss mean (range)” value [1, 6]?
Answer: Its value is 102 (64–154) × 10^4 ml m^−2.

Question: What about the “Cl mean (range)” value [1, 7] of the same compound?
Answer: The value was 33 (28–39) × 10^3 ml h m^−2.

Question: And the “Vss mean (range)” value [1, 7]?
Answer: The value was 79 (42–100) × 10^4 ml m^−2.

Question: What about the “Cl mean (range)” value [1, 8] of the same compound?
Answer: Its value is 24 (15–34) × 10^3 ml h m^−2.

Question: What about the “Vss mean (range)” value [1, 8] of the same compound?
Answer: The value was 57 (20–110) × 10^4 ml m^−2.

Question: And the “Cl mean (range)” value [1, 9]?
Answer: Its value is 22 (13–31) × 10^3 ml h m^−2.

Question: And the “Vss mean (range)” value [1, 9]?
Answer: Its value is 41 (18–70) × 10^4 ml m^−2.

Question: What about the “Cl mean (range)” value [1, 10] of the same compound?
Answer: Its value is 22 (12–41) × 10^3 ml h m^−2.

Question: And the “Vss mean (range)” value [1, 10]?
Answer: Its value is 43 (16–76) × 10^4 ml m^−2.

Question: What about the “Cl mean (range)” value [1, 11] of the same compound?
Answer: Its value is 18 (12–28) × 10^3 ml h m^−2.

Question: What about the “Vss mean (range)” value [1, 11] of the same compound?
Answer: The value was 25 (16–32) × 10^4 ml m^−2.

Question: And the “Pharmacokinetic drug–drug interaction (Cmax, AUC and clearance of docetaxel alone vs in combination with pertuzumab)” value ([1]; cycle 1 alone vs cycle 2 combined)?
Answer: The value was “no drug–drug interaction”.

Question: And the AUC(0-inf) [1, 12]?
Answer: Its AUC(0-inf) is 1840 ng·h/mL.

Question: And the Cmax [1, 12]?
Answer: Its Cmax is 1640 ng/mL.

Question: And the half-life [1, 12]?
Answer: Its half-life is 16.9 h.

Question: What about the AUC(0-inf) [1, 13] of the same compound?
Answer: The AUC(0-inf) was 3740 ng·h/mL.

Question: And the Cmax [1, 13]?
Answer: Its Cmax is 3130 ng/mL.

Question: What about the half-life [1, 13] of the same compound?
Answer: The half-life was 12.7 h.

Question: And the AUC(0-inf) [1, 14]?
Answer: The AUC(0-inf) was 5930 ng·h/mL.

Question: And the Cmax [1, 14]?
Answer: Its Cmax is 5450 ng/mL.

Question: And the half-life [1, 14]?
Answer: Its half-life is 9.59 h.

Question: And the AUC(0-inf) [1, 6]?
Answer: Its AUC(0-inf) is 1730 ng·h/mL.

Question: And the Cmax [1, 6]?
Answer: The Cmax was 1700 ng/mL.

Question: What about the half-life [1, 6] of the same compound?
Answer: Its half-life is 19.7 h.

Question: What about the AUC(0-inf) [1, 8] of the same compound?
Answer: Its AUC(0-inf) is 3500 ng·h/mL.

Question: And the Cmax [1, 8]?
Answer: Its Cmax is 2720 ng/mL.

Question: What about the half-life [1, 8] of the same compound?
Answer: Its half-life is 15.2 h.

Question: And the AUC(0-inf) [1, 10]?
Answer: The AUC(0-inf) was 5220 ng·h/mL.

Question: What about the Cmax [1, 10] of the same compound?
Answer: Its Cmax is 4700 ng/mL.

Question: What about the half-life [1, 10] of the same compound?
Answer: Its half-life is 12.8 h.

Question: And the “Recommended phase II dose of docetaxel in the combination” value ([2]; with pertuzumab 420 mg following a loading dose of 840 mg, intravenously every 3 weeks)?
Answer: The value was 75 mg m^−2.

Question: Which results are given for “pertuzumab: fully humanised monoclonal antibody, which acts by blocking the association of HER2 with other HER family members”?
Answer: Recommended phase II dose of pertuzumab in the combination ([2]; in vivo, iv): 420 mg; Anti-tumour activity ([3]; single-agent pertuzumab, refractory ovarian cancer, ref Gordon et al, 2006): Significant anti-tumour activity; Anti-tumour activity ([3]; single-agent phase II study, HRPC, ref De Bono et al, 2007): no evidence of anti-tumour activity; Terminal elimination half-life ([4]; in vivo): 2–4 weeks; Tolerability ([4]; in vivo): well tolerated; Maximum tolerated dose ([4]; single-agent pertuzumab, phase I studies, not reached, ref Agus et al, 2005): > 15 mg/kg; PK parameters of pertuzumab in the presence of docetaxel compared with single agent ([5]; 1050 mg cycles 1 and 2, 840 mg cycle 1 and 420 mg cycle 2): comparable with single agent values; AUC0-last mean (range) [5, 15]: 1491 (914–2289) μg day ml^−1; AUC0-∞ mean (range) [5, 15]: 2762 (1639–3827) μg day ml^−1; Cl mean (range) [5, 15]: 169 (110–256) ml per day; Cmax mean (range) [5, 15]: 150 (102–233) μg ml^−1; Vss mean (range) [5, 15]: 4233 (2823–7058) ml; AUC0-last mean (range) [5, 16]: 1749 (1214–3083) μg day ml^−1; AUC0-∞ mean (range) [5, 16]: 2796 (1604–5116) μg day ml^−1; Cl mean (range) [5, 16]: 329 (164–524) ml per day; Cmax mean (range) [5, 16]: 255 (169–447) μg ml^−1; AUC0-last mean (range) [5, 17]: 2390 (1733–3355) μg day ml^−1; AUC0-∞ mean (range) [5, 17]: 3951 (2348–4980) μg day ml^−1; Cl mean (range) [5, 17]: 282 (211–447) ml per day; Cmax mean (range) [5, 17]: 301 (143–394) μg ml^−1; Vss mean (range) [5, 17]: 5214 (2975–7036) ml; AUC0-last mean (range) [5, 18]: 3500 (3010–4346) μg day ml^−1; AUC0-∞ mean (range) [5, 18]: 6856 (4521–11426) μg day ml^−1; Cmax mean (range) [5, 18]: 368 (253–463) μg ml^−1; Vss mean (range) [5, 18]: 4672 (3023–6580) ml
